Patent US4624956A, “Ulcer and gastric secretion inhibiting 4,5,6,7-tetrahydrothiazole[5,4-c]pyridine derivatives” (priority 1983, dated 1986)
Where a name gives a salt, the structure may show the parent alone.

Legend:
[1] = test system: oxotremorine syndrome in the mouse; details: for Anticholinergic activ. (antagonism against oxotremorine syndrome): in vivo, po, 100 mg/kg
Method: (§1) Considering that some anti-ulcer agents display, as does atropine, a remarkable but undesired anticholinergic activity, the compound of the present invention was also assessed for its antagonism against the syndrome induced by intraperitoneally (i.p.) administered oxotremorine in mice, according to the method described by G. P. Leszkovsky and L. Tardos (Europ. J. Pharmac. 1971, 15, 310). Given test compound embodiments were administered to groups of 5 male mice, 20-25 g body weight, at the screening dose of 100 mg/kg per os. The degree of peripheral cholinergic activation induced by oxotremorine was measured b salivation and lachrymation, and the degree of central cholinergic activation by the severity of tremors and hypothermia. […] The approximate acute toxicity (LD50) of the compounds of the invention was determined in the mouse and in the rat by single oral administration of increasing doses and measured on the seventh day after treatment. […] Ranitidine, the well known anti-ulcer agent, was used as comparison compound.

[2] = test system: ASA induced gastric ulcers in rats; assay: inhibition of acetyl salicyclic acid (ASA) induced gastric ulcers in rats; assay type: in vivo, rat (male Sprague Dawley); details: po, 4 h, rat, p.o. 60 min before ASA 100 mg/kg, dose reducing ulcer index by 50%
Method: The anti-ulcerogenic activity of the present compound is shown, for example, by the fact that embodiments of the present compound are active in the test of inhibition of acetyl salicyclic acid (ASA) induced gastric ulcers in rats as described by M. Hemmati et al in Pharmacology, 9, 374, 1973. Male Sprague Dawley rats [Crl: CD (SD) BR] (Charles River Italy) weighing 190±10 g, which had fasted for 15 hours, but given free access to water, were administered ASA (100 mg/kg per os in 0.2 ml/100 g b.w.) 60 minutes after the oral treatment with the tested compounds. Gastric ulcerations were evaluated 4 hours after ASA treatment. The inhibition of gastric ulcerations, evaluated as percentage inhibition of ulcer index (sum of ulcer length in millimeters), was expressed as ED50 (dose which reduces gastric ulcerations by 50% in comparison with control rats).

[3] = test system: gastric ulcers induced in rats by stress; assay: inhibition of stress ulcers in rats (restraint in water at 23° C. for 4 hours); assay type: in vivo, rat (Charles River male); details: po, rat, p.o. one hour before stress, number of ulcers
Method: The anti-ulcerogenic activity of the compound of the present invention is shown also by the fact that embodiments of the same are active in the test of inhibition of stress ulcers in rats (restraint in water at 23° C. for 4 hours), according to the method of M. Usardi et al. (Prostaglandins, 8, 43, 1974). The tested compounds were administered per os one hour before the stress. Six Charles River male rats (140±10 g body weight), which had fasted for 16 hours, were used for each experimental group. At the end of the stress, the rats were killed and the gastric ulcers evaluated by counting them. The inhibition of gastric ulcerations, evaluated as percentage inhibition of ulcer index (number of ulcers), was expressed as ED50.

[4] = test system: basal gastric secretion output HCl; assay: gastric anti-secretory activity in rats, pylorus ligature technique; assay type: in vivo, rat (Sprague-Dawley male); details: Column 4, rat, intraduodenal (i.d.), 4 hours, read-out: Antisecretory activ.: inhibition of basal gastric secretion output HCl (ED50)
Method: The gastric anti-secretory activity of the compound of the present invention was evaluated in rats by the pylorus ligature technique (H. Shay et al, Gastroenterology 5, 43 1945). Six Sprague-Dawley male rats (110-130 g body weight) for each group were used. Twenty-four hours before the test, the rats were deprived of food while water was maintained. On the day of operation, the pylorus was ligated under light ether anaesthesia. Four hours after the ligature the rats were sacrificed, the stomach secretion collected, centrifuged at 3500 r.p.m. for 10 minutes and the volume, less sediment, was determined. The amount of free hydrochloric acid in the gastric juice was determined by titration against 0.1N sodium hydroxide to an end point of pH 7. All the compounds were injected intraduodenally at the time of ligature. The results, expressed as ED50 mg/kg (the dose which reduced the output of hydrochloride acid by 50% in comparison with control rats) are reported in column 4 of Table 1.

[5] = approximate acute toxicity (LD50) in the mouse, single oral administration; details: in vivo
Method: as §1

histamine H2-receptor = target: T1, histamine H2-receptor (Cavia porcellus, UniProt P47747); assay: histamine H2-receptor antagonist activity in vitro on the guinea pig right atrium; details: Column 5; guinea pig atria in vitro; screening dose 1 × 10^-5 M; 'More active' continues 'than Ranitid.'; active if it shifts histamine curve right at ≤1×10^-5 M
T1 construct: histamine-induced rate increase
T1 sequence (P47747 whole entry): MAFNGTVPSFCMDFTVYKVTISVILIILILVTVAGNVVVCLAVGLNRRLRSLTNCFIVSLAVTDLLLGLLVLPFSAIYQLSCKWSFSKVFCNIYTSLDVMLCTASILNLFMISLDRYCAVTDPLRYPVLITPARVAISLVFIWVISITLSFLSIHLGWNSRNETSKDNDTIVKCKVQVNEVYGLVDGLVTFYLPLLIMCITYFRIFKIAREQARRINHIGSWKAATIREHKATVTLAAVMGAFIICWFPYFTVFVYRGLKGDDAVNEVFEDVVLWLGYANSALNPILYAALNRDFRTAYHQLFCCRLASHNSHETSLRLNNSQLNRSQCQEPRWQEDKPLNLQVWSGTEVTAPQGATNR
Method: The compound of the present invention was assayed for histamine H2 -receptor antagonist activity in vitro on the guinea pig right atrium. Male guinea pigs were killed by a blow on the head and the heart was quickly excised and placed in oxygenated Ringer Lock solution of the following composition (g/l): NaCl 9, KCl 0.42, CaCl2 0.24, NaHCO3 0.5, Glucose 1. Atria were dissected away from the rest of the heart, freed from connective tissue, suspended in a 20 ml organ bath containing Ringer Locke solution thermoregulated at 37° C., and carboxygenated with 95% O2 and 5% CO2. Atria spontaneously beating were allowed to adjust to the bath conditions for at least 30 minutes prior to the experiment. Histamine was added to the bath in cumulative fashion starting from 3×10^-7 M to 1×10^-4 M. The histamine-induced increase in atrial rate was allowed to plateau before the next successive concentration was added. After washing and waiting for the recovery of atria rate, a compound was added 5 minutes before repeating the cumulative dose response curve with histamine. A compound is considered an H2 -receptor antagonist if it is able to shift the dose response curve of histamine to the right at a concentration ≤1×10^-5 M. The results are reported in column 5 of Table 1.

[6] = test system: duodenal ulcers induced in rats by cysteamine; assay: inhibition of duodenal ulcers induced in rats by cysteamine; assay type: in vivo; details: po, rat
Method: The inhibition of duodenal ulcers, induced in rats by cysteamine, was evaluated for the tested compounds as percentage inhibition of ulcer index [sum of the lesioned areas per rat (mm^2)] according to the method of Fujii Y. et al, Jap. J. Pharm. 25, 663, 1975, and expressed as ED50.

[7] = approximate acute toxicity (LD50) in the rat, single oral administration; details: in vivo
Method: as §1

Compound	peripheral and central effects induced by oxotremorine ([1]; oxotremorine i.p., dose of atropine sulfate not given)	ED50 [2]	ED50 [3]	ED50 [4]	Anticholinergic activ. (antagonism against oxotremorine syndrome) [1]	LD50 at 168 h [5]	Anti-H2 activ. (histamine H2-receptor)	ED50 [6]	LD50 at 168 h [7]
CN1[C@@H]2CC[C@H]1C[C@@H](OC(=O)C(CO)c1ccccc1)C2 (stereo partly shown) [Atropine sulfate, reference compound]	suppressed both peripheral and central effects	–	–	–	–	–	–	–	–
CC(C)NC(=S)N1CCc2nc(N)sc2C1 [Example 2, 2-Amino-5-(isopropyl-thiocarbamoyl)-4,5,6,7-tetrahydrothiazolo[5,4-c]pyridine]	–	~5 mg/kg	2.7 mg/kg	1 mg/kg	Inactive	400 to 800 mg/kg	–	–	–
CNC(=O)N1CCc2nc(N)sc2C1 [Example 5, 2-Amino-5-(methyl-carbamoyl)-4,5,6,7-tetrahydrothiazolo[5,4-c]pyridine]	–	1.2 mg/kg	> 25 mg/kg	> 5 mg/kg	Inactive	200 to 400 mg/kg	–	–	–
CC(C)NC(=S)N1CCc2nc(NC(=N)N)sc2C1 [Example 15, 2-Guanidino-5-(isopropyl-thiocarbamoyl)-4,5,6,7-tetrahydrothiazolo[5,4-c]pyridine]	–	0.5 mg/kg	< 50 mg/kg	< 5 mg/kg	Inactive	400 to 800 mg/kg	Active	–	–
CC(C)NC(=O)N1CCc2nc(NC(=N)N)sc2C1 [Example 16, 2-Guanidino-5-(isopropyl-carbamoyl)-4,5,6,7-tetrahydrothiazolo[5,4-c]pyridine]	–	0.017 mg/kg	2.9 mg/kg	0.33 mg/kg	Inactive	200 to 400 mg/kg	More active	0.4 mg/kg	> 800 mg/kg
N=C(N)Nc1nc2c(s1)CN(C(=O)NC1CC1)CC2 [Example 22, 2-Guanidino-5-(cyclopropyl-carbamoyl)-4,5,6,7-tetrahydrothiazolo[5,4,-c]pyridine]	–	0.08 mg/kg	20.2 mg/kg	1.7 mg/kg	Inactive	> 800 mg/kg	More active	0.3 mg/kg	> 800 mg/kg
CNC(=C[N+](=O)[O-])NCCSCc1ccc(CN(C)C)o1 [Ranitidine, reference compound]	–	0.5 mg/kg	6.2 mg/kg	7 mg/kg	Inactive	> 800 mg/kg	–	10.7 mg/kg	> 800 mg/kg
